ChEMBL document CHEMBL5584240, “Evaluation of potency and metabolic stability of diphyllin-derived Vacuolar-ATPase inhibitors” (Eur J Med Chem, 2024)
Activity calls are given as the source filed them. No cut-off for these calls is given here.

Legend:
[1] = Oral bioavailability in ICR mouse at 75 mg/kg by LC-MS/MS analysis; assay type: ADME, organism-based; details: in vivo
Ebolavirus = assay: Antiviral activity against recombinant Ebola virus Mayinga expressing GFP infected in human HeLa cells with ATP6V0a2 KO assessed as reduction in viral entry into cells pretreated for 1 hr followed by viral infection measured after 24 to 48 hrs by imaging analysis; assay type: functional, organism-based; details: Orthoebolavirus
HEK293 = assay: Cytotoxicity against HEK293 cells incubated for 72 hrs by MTT assay; assay type: toxicity, cell-based; details: human, hek293, 72 h
A549 = assay: Induction of phospholipidosis in NBD-PE-treated human A549 cells at 10 uM incubated for 24 hrs by imaging based analysis; assay type: functional, cell-based

Row | Structure (SMILES) | bioavailability [1] [%] | EC50 (Ebolavirus) [µM] | CC50 (HEK293) [µM] | Activity (A549)
1 | COc1cc2c(O[C@@H]3O[C@H](CO)[C@@H]4OC(C)(C)O[C@@H]4[C@H]3O)c3c(c(-c4ccc5c(c4)OCO5)c2cc1OC)C(=O)OC3 | 2.5 | – | – | –
2 | COc1cc2c(O)c3c(c(-c4ccc5c(c4)OCO5)c2cc1OC)C(=O)OC3 [DIPHYLLIN] | – | 1.09 | > 80 | inactive
